Assay results published in article PMC10986521 (Microbiology Spectrum, 2024).

What was measured:
in vitro = conditions: human
FMDV 3Cpro [1] = target: T1, FMDV 3Cpro (Foot-and-mouth disease virus A, UniProt A0A097I315); assay: cell-based; design: species or system FMDV A/IND287/96 strain; conditions: Cell-based assay (EC50)
FMDV 3Cpro [2] = target: T1, FMDV 3Cpro; assay: biochemical; design: species or system FMDV A/IND287/96 strain (serotype A); conditions: FRET assay (IC50)

| Compound | CC50 (in vitro) | EC50 (FMDV 3Cpro [1]) | IC50 (FMDV 3Cpro [2]) |
| --- | --- | --- | --- |
| CC(C)C[C@H](NC(=O)[C@H](Cc1cccc2ccccc12)NC(=O)OCc1ccccc1)C(=O)N[C@H](C=O)C[C@@H]1CCNC1=O [Compound E1] | > 50000 nM | 110 ± 50 nM | 50 ± 80 nM |
| CC(C)C[C@H](NC(=O)OCC(C)(C)Sc1cccc(F)c1)C(=O)N[C@H](C=O)C[C@@H]1CCNC1=O [Compound D5c] | > 50000 nM | 1000 ± 280 nM | 3150 ± 490 nM |
| COc1cccc([C@@H]2C[C@H]2COC(=O)N[C@@H](CC(C)C)C(=O)N[C@@H](C[C@H]2CCNC2=O)C(O)S(=O)(=O)O)c1 (some centres unmarked) [Compound C9d] | > 50000 nM | 2050 ± 640 nM | 840 ± 60 nM |
| CC(C)C[C@H](NC(=O)OC[C@@H]1C[C@H]1C1CCCCC1)C(=O)N[C@@H](C[C@H]1CCNC1=O)C(O)S(=O)(=O)O (some centres unmarked) [Compound C15d] | > 50000 nM | 500 ± 110 nM | 290 ± 80 nM |
| CC(C)C[C@H](NC(=O)OC[C@@H]1C[C@H]1c1cccc(F)c1)C(=O)N[C@H](C=O)C[C@H]1CCNC1=O [Compound C5c] | > 50000 nM | 2130 ± 490 nM | 1050 ± 210 nM |
| CC(C)C[C@H](NC(=O)OC[C@@H]1C[C@H]1C1CCC(F)(F)CC1)C(=O)N[C@@H](C[C@H]1CCNC1=O)C(O)S(=O)(=O)O (some centres unmarked) [Compound C17d] | > 50000 nM | > 10000 nM | 750 ± 90 nM |
| CC(C)C[C@H](NC(=O)OCC(C)(C)Oc1ccc(F)cc1)C(=O)N[C@@H](C[C@@H]1CCNC1=O)C(O)S(=O)(=O)O (some centres unmarked) [Compound D15d] | > 50000 nM | 5900 ± 580 nM | 550 ± 70 nM |
| CC(C)C[C@H](NC(=O)OCc1ccccc1)C(=O)N[C@@H](C[C@@H]1CCNC1=O)C(=O)C(=O)NC1CC1 [Compound E6b] | > 50000 nM | 8800 ± 300 nM | 2400 ± 90 nM |
| CC(C)C[C@H](NC(=O)OCC(C)(C)Oc1cccc(F)c1)C(=O)N[C@@H](C[C@@H]1CCNC1=O)C(O)S(=O)(=O)O (some centres unmarked) [Compound D16d] | > 50000 nM | 5050 ± 210 nM | 690 ± 20 nM |
| CC(C)C[C@H](NC(=O)OC[C@@H]1C[C@H]1c1ccccc1)C(=O)N[C@H](C=O)C[C@H]1CCNC1=O [Compound C1c] | > 50000 nM | 3150 ± 350 nM | 1000 ± 280 nM |
| CC(C)C[C@H](NC(=O)OCC(C)(C)[S+]([O-])c1ccccc1)C(=O)N[C@@H](C[C@@H]1CCNC1=O)C(O)S(=O)(=O)O (some centres unmarked) [Compound D3d] | > 50000 nM | > 10000 nM | 1050 ± 210 nM |
| CC(C)C[C@H](NC(=O)OCC(C)(C)Oc1cccc(Cl)c1)C(=O)N[C@H](C=O)C[C@@H]1CCNC1=O [Compound D13c] | > 50000 nM | 5340 ± 1190 nM | 670 ± 80 nM |
| CC(C)C[C@H](NC(=O)OCc1ccccc1)C(=O)N[C@@H](C[C@@H]1CCNC1=O)C(=O)C(=O)NC1CCCCC1 [Compound E6e] | > 50000 nM |  | 2800 ± 100 nM |
| [2H]C([2H])(OC(=O)N[C@@H](CC(C)C)C(=O)N[C@H](C=O)C[C@@H]1CCNC1=O)C(C)(C)Oc1cccc(Cl)c1 [Compound D14c] | > 50000 nM | 3380 ± 390 nM | 500 ± 140 nM |
| CC(C)C[C@H](NC(=O)OC[C@H]1[C@H](c2ccccc2)C1(F)F)C(=O)N[C@H](C=O)C[C@H]1CCNC1=O [Compound C2c] | > 50000 nM | 1200 ± 140 nM | 1350 ± 640 nM |
| CC(C)C[C@H](NC(=O)OCC(C)(C)Oc1cccc(F)c1)C(=O)N[C@H](C=O)C[C@@H]1CCNC1=O [Compound D16c] | > 50000 nM | 4900 ± 370 nM | 780 ± 30 nM |
| CC(C)C[C@H](NC(=O)OCC(C)(C)Sc1cccc(Cl)c1)C(=O)N[C@@H](C[C@@H]1CCNC1=O)C(O)S(=O)(=O)O (some centres unmarked) [Compound D7d] | > 50000 nM | 1200 ± 140 nM | 600 ± 10 nM |
| CC(C)C[C@H](NC(=O)OC[C@@H]1C[C@H]1CC1CCCCC1)C(=O)N[C@@H](C[C@H]1CCNC1=O)C(O)S(=O)(=O)O (some centres unmarked) [Compound C16d] | > 50000 nM | 1210 ± 480 nM | 330 ± 40 nM |
| CC(C)C[C@H](NC(=O)OC[C@@H]1C[C@H]1c1cccc(F)c1)C(=O)N[C@@H](C[C@H]1CCNC1=O)C(O)S(=O)(=O)O (some centres unmarked) [Compound C5d] | > 50000 nM | 1890 ± 90 nM | 950 ± 220 nM |
| CC(C)C[C@H](NC(=O)OCC(C)(O)c1cccc(Cl)c1)C(=O)N[C@H](C=O)C[C@@H]1CCNC1=O (some centres unmarked) [Compound D17c] | > 50000 nM |  | 2000 ± 710 nM |
| CC(C)C[C@H](NC(=O)OCC(C)(C)S(=O)(=O)c1ccccc1)C(=O)N[C@H](C=O)C[C@@H]1CCNC1=O [Compound D4c] | > 50000 nM | > 10000 nM | 900 ± 280 nM |
| CC(C)C[C@H](NC(=O)OCC(C)(C)Oc1ccc(Cl)cc1)C(=O)N[C@@H](C[C@@H]1CCNC1=O)C(O)S(=O)(=O)O (some centres unmarked) [Compound D11d] | > 50000 nM | 980 ± 1110 nM | 490 ± 50 nM |
| CCCCNC(=O)C(=O)[C@H](C[C@@H]1CCNC1=O)NC(=O)[C@H](CC(C)C)NC(=O)OCc1ccccc1 [Compound E6c] | > 50000 nM | 7000 ± 500 nM | 2100 ± 70 nM |
| CC(C)C[C@H](NC(=O)OCc1ccccc1)C(=O)N[C@H](C=O)C[C@@H]1CCNC1=O [GC373] | > 50000 nM | 6600 ± 200 nM | 2300 ± 70 nM |

| Compound | CC50 (in vitro) | EC50 (FMDV 3Cpro [1]) | IC50 (FMDV 3Cpro [2]) |
| --- | --- | --- | --- |
| CC(C)C[C@H](NC(=O)OC[C@@H]1C[C@H]1c1ccccc1)C(=O)N[C@@H](C[C@H]1CCNC1=O)C(O)S(=O)(=O)O (some centres unmarked) [Compound C1d] | > 50000 nM | 3250 ± 630 nM | 750 ± 70 nM |
| COc1ccccc1[C@@H]1C[C@@H]1COC(=O)N[C@@H](CC(C)C)C(=O)N[C@@H](C[C@H]1CCNC1=O)C(O)S(=O)(=O)O (some centres unmarked) [Compound C12d] | > 50000 nM | 1250 ± 70 nM | 510 ± 60 nM |
| CC(C)C[C@H](NC(=O)OC[C@@H]1C[C@H]1c1ccc(F)cc1)C(=O)N[C@@H](C[C@H]1CCNC1=O)C(O)S(=O)(=O)O (some centres unmarked) [Compound C7d] | > 50000 nM | 2150 ± 350 nM | 750 ± 70 nM |
| COc1ccc([C@@H]2C[C@H]2COC(=O)N[C@@H](CC(C)C)C(=O)N[C@@H](C[C@H]2CCNC2=O)C(O)S(=O)(=O)O)cc1 (some centres unmarked) [Compound C10d] | > 50000 nM | 2850 ± 1550 nM | 1050 ± 210 nM |
| CC(C)C[C@H](NC(=O)OC[C@@H]1C[C@H]1Cc1ccccc1)C(=O)N[C@@H](C[C@H]1CCNC1=O)C(O)S(=O)(=O)O (some centres unmarked) [Compound C3d] | > 50000 nM | 4020 ± 300 nM | 800 ± 140 nM |
| CC(C)C[C@H](NC(=O)OC[C@@H]1C[C@H]1c1cccc(Cl)c1)C(=O)N[C@H](C=O)C[C@H]1CCNC1=O [Compound C6c] | > 50000 nM | 3300 ± 710 nM | 800 ± 50 nM |
| [2H]C([2H])(OC(=O)N[C@@H](CC(C)C)C(=O)N[C@H](C=O)C[C@@H]1CCNC1=O)C(C)(C)Oc1ccc(Cl)cc1 [Compound D12c] | > 50000 nM | 350 ± 100 nM | 140 ± 20 nM |
| [2H]C([2H])(OC(=O)N[C@@H](CC(C)C)C(=O)N[C@H](C=O)C[C@@H]1CCNC1=O)C(C)(C)Sc1ccccc1 [Compound D2c] | > 50000 nM | 2500 ± 420 nM | 1520 ± 20 nM |
| CC(C)C[C@H](NC(=O)OCC(C)(C)Sc1cccc(Cl)c1)C(=O)N[C@H](C=O)C[C@@H]1CCNC1=O [Compound D7c] | > 50000 nM | 1050 ± 210 nM | 1500 ± 280 nM |
| CC(C)C[C@H](NC(=O)OC[C@H]1[C@H](Cc2ccccc2)C1(F)F)C(=O)N[C@H](C=O)C[C@H]1CCNC1=O [Compound C4c] | > 50000 nM |  | 820 ± 150 nM |
| CC(C)C[C@H](NC(=O)OCc1ccccc1)C(=O)N[C@@H](C[C@@H]1CCNC1=O)C(=O)c1ncco1 [Compound E8a] | > 50000 nM | 8200 ± 90 nM | 3400 ± 80 nM |
| CC(C)C[C@H](NC(=O)OCC(C)(C)[S+]([O-])c1ccccc1)C(=O)N[C@H](C=O)C[C@@H]1CCNC1=O (some centres unmarked) [Compound D3c] | > 50000 nM | > 10000 nM | 1140 ± 80 nM |
| CC(C)C[C@H](NC(=O)OCCSc1ccccc1)C(=O)N[C@H](C=O)C[C@@H]1CCNC1=O [Compound D8c] | > 50000 nM | 1750 ± 210 nM | 1350 ± 350 nM |
| CC(C)C[C@H](NC(=O)OCC(C)(C)Sc1ccccc1)C(=O)N[C@@H](C[C@@H]1CCNC1=O)C(=O)C(=O)NC1CC1 [Compound D1e] | > 50000 nM | 5000 ± 280 nM | 3750 ± 70 nM |
| CC(C)C[C@H](NC(=O)OCC(C)(C)Sc1ccc(F)cc1)C(=O)N[C@H](C=O)C[C@@H]1CCNC1=O [Compound D6c] | > 50000 nM | 5150 ± 640 nM | 910 ± 150 nM |
| COc1ccccc1[C@@H]1C[C@H]1COC(=O)N[C@@H](CC(C)C)C(=O)N[C@@H](C[C@H]1CCNC1=O)C(O)S(=O)(=O)O (some centres unmarked) [Compound C11d] | > 50000 nM | 1020 ± 170 nM | 450 ± 130 nM |
| CC(C)C[C@H](NC(=O)OCC(C)(C)Oc1ccccc1)C(=O)N[C@H](C=O)C[C@@H]1CCNC1=O [Compound D10c] | > 50000 nM |  | 740 ± 80 nM |
| CC(C)C[C@H](NC(=O)OCC(C)(C)Sc1cccc(F)c1)C(=O)N[C@@H](C[C@@H]1CCNC1=O)C(O)S(=O)(=O)O (some centres unmarked) [Compound D5d] | > 50000 nM |  | 810 ± 70 nM |
| CC(C)C[C@H](NC(=O)OCc1ccccc1)C(=O)N[C@@H](C[C@@H]1CCNC1=O)C(=O)C(=O)NC(C)C [Compound E6a] | > 50000 nM |  | 3900 ± 200 nM |
| CC(C)C[C@H](NC(=O)OC[C@@H]1C[C@H]1c1ccc(Cl)cc1)C(=O)N[C@@H](C[C@H]1CCNC1=O)C(O)S(=O)(=O)O (some centres unmarked) [Compound C8d] | > 50000 nM |  | 550 ± 70 nM |
| CC(C)C[C@H](NC(=O)OCC(C)(C)Oc1ccccc1)C(=O)N[C@@H](C[C@@H]1CCNC1=O)C(O)S(=O)(=O)O (some centres unmarked) [Compound D10d] | > 50000 nM |  | 700 ± 280 nM |
| CC(C)C[C@H](NC(=O)OCC(C)(O)c1cccc(Cl)c1)C(=O)N[C@@H](C[C@@H]1CCNC1=O)C(O)S(=O)(=O)O (some centres unmarked) [Compound D17d] | > 50000 nM |  | 900 ± 280 nM |
| CC(C)C[C@H](NC(=O)OC[C@@H]1C[C@H]1c1ccc(Cl)cc1)C(=O)N[C@H](C=O)C[C@H]1CCNC1=O [Compound C8c] | > 50000 nM |  | 1150 ± 80 nM |
